Data published in US20250332173A1, “COMPOUNDS AND METHODS FOR MODULATING NUCLEIC ACID SPLICING” (REMIX THERAPEUTICS INC., priority 2021, published 2025).
Where two headings read alike, the source gives them in different places.

Assays:
MYB mRNA = assay: RT-qPCR splicing assay, MYB canonical junction (CJ) and alternative junction (AJ) mRNA; assay type: cell-based, human; conditions: Homo sapiens; for AC50: increase in MYB alternative junction (AJ) mRNA, read-out: MYB AJ AC50
In short: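 A673 or K562 cells were treated for 24 h at 37 °C with an 11-point 3-fold compound dilution series (top final concentration 10 uM, DMSO ≤0.25%). After lysis, one-step TaqMan RT-qPCR quantified junction transcripts, normalized to PPIA for A673 or to GAPDH/GUSB for K562.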

Target C = assay: RT-qPCR splicing assay panel, Target C canonical junction (CJ) mRNA; assay type: cell-based, human; conditions: Homo sapiens; canonical junction qPCR panel, Table 5; read-out: Target C (decrease in CJ mRNA levels, IC50)
In short: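 A673 cells (DMEM/10% FBS) or K562 cells (IMDM/10% FBS) were treated 24 h at 37° C. with 11-point 3-fold dilutions (top 10 uM, ≤0.25% DMSO). Canonical-junction mRNA was quantified in lysates by RT-qPCR, normalized to GAPDH, GUSB or PPIA.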

[1] = canonical junction qPCR panel, Table 5, read-out: MYB (decrease in CJ mRNA levels, IC50)
[2] = decrease in MYB canonical junction (CJ) mRNA, RT-qPCR, read-out: MYB CJ IC50

Compound | IC50 (MYB mRNA; [1]) [µM] | IC50 (MYB mRNA; [2]) [µM] | IC50 (Target C) [µM] | AC50 (MYB mRNA; RT-qPCR) [µM]
Cn1cc2cc(-n3cnc4ccc(N5CCNCC5)cc4c3=O)cc(F)c2n1 [Compound 2196] | > 10 | > 10 | > 10 | > 10
CN(c1ccc2ncn(-c3cc(F)c4nn(C)cc4c3)c(=O)c2c1)C1CCNCC1 [Compound 2198] | > 10 | > 10 | > 10 | > 10
CN1CCC(N(C)c2ccc3ncn(-c4cc(F)c5nn(C)cc5c4)c(=O)c3c2)CC1 [Compound 2199] | > 10 | > 10 | > 10 | > 10
Cc1cn2cc(-n3cnc4ccc(N(C)C5CCNCC5)cc4c3=O)cc(F)c2n1 [Compound 2200] | > 10 | > 10 | > 10 | > 10
Cc1cn2nc(-n3cnc4ccc(N5CCN(C)CC5)cc4c3=O)cc(C)c2n1 [Compound 2202] | 1 to 10 | 1 to 10 | 1 to 10 | 1 to 10
Cc1cc(-c2ccc3c(=O)[nH]c(N4CCN(C)CC4)nc3c2)cc2cn(C)nc12 [Compound 2212] | 1 to 10 | 1 to 10 | 1 to 10 | 1 to 10

The next lines start with results.

IC50 (MYB mRNA; [1]) [µM] | IC50 (MYB mRNA; [2]) [µM] | IC50 (Target C) [µM] | Compound | AC50 (MYB mRNA; RT-qPCR) [µM]
> 10 | > 10 | > 10 | Cc1cc(-c2ccc3ncn(C4CCN(C)CC4)c(=O)c3c2)cc2cn(C)nc12 [Compound 2170] | > 10
> 10 | > 10 | > 10 | CN1CCC(Nc2ccc3ncn(-c4ccc5nn(C)cc5c4)c(=O)c3c2)CC1 [Compound 2171] | > 10
> 10 | > 10 | > 10 | Cc1cn2cc(-n3cnc4ccc(N5CCNCC5)cc4c3=O)cc(F)c2n1 [Compound 2195] | > 10
1 to 10 | 1 to 10 | 1 to 10 | Cc1cn2cc(-n3cnc4ccc(N5CCN(C)CC5)cc4c3=O)cc(F)c2n1 [Compound 2197] | 1 to 10
> 10 | > 10 | > 10 | Cc1cn2nc(-n3cnc4ccc(N5CCNCC5)cc4c3=O)cc(C)c2n1 [Compound 2201] | > 10
> 10 | > 10 | > 10 | Cc1cc(-c2ccc3c(=O)[nH]c(N4CCNCC4)nc3c2)cc2cn(C)nc12 [Compound 2211] | > 10
> 10 | > 10 | > 10 | Cc1cc(-c2nc3cc(N4CCNCC4)ccc3c(=O)[nH]2)cc2cn(C)nc12 [Compound 2213] | > 10
